What was measured:
[1] = Liver microsome stability, mouse; assay type: in vitro ADME; details: liver microsomes, pH 7.4, Table 2B, read-out: Microsome Stability Mouse t1/2
Procedure: (§1) The stabilities of creatine prodrugs can be evaluated in one or more in vitro systems using a variety of preparations following methods known in the art. Experimental conditions useful for the in vitro studies are described in Table 1. Prodrug is added to each preparation in triplicate. […]
(§2) Protocol for Microsomal Stability:
(§3) For reference compound, a 500 μM spiking solution was prepared: add 10 μL of 10 mM DMSO stock solution into 190 μL ACN. […] For test compound, a 5 mM spiking solution was prepared: add 10 μL of 10 mM DMSO stock solution into 10 μL ACN. […] NADPH stock solution (6 mM) was prepared by dissolving NADPH into buffer 0.1 M Potassium Phosphate buffer, 1.0 mM EDTA, pH 7.4. […] For 0-min, 135 μL of ACN containing IS was added to the wells of 0-min plate and then 15 μL of NADPH stock solution (6 mM) was added. 15 μL of NADPH stock solution (6 mM) was added to the samples designated as 0-, 5-, 10-, 20-, 30-min, 60-min; 15 μL of buffer 0.1 M Potassium Phosphate buffer, 1.0 mM EDTA, pH 7.4, was added to the samples designated as 60-min without NADPH. At 5-min, 10-min, 20-min, and 30-min, 60-min 135 μL of ACN containing IS was added to the wells of corresponding plates, respectively, to stop the reaction. […] 50 μL of the supernatant from each well was transferred into a 96-well sample plate containing 50 μL of ultra pure water (Millipore, ZMQS50FOI) and analyzed by LC/MS.

[2] = Chemical stability in simulated gastric fluid (SGF) without pepsin; assay type: physicochemical; details: Table 2B, 50 μM prodrug
Procedure: (§4) Chemical stability of creatine prodrugs in phosphate buffered saline (PBS), simulated intestinal fluid (SIF) without pancreatin, simulated gastric fluid (SGF) without pepsin were determined by LC-UV, LC-CAD, LC-UV-CAD or LC-MS/MS as appropriate. Creatine prodrugs of the present disclosure (50 μM) were incubated at 37° C. according to described protocols and prodrug levels were compared between t=0, t=15, t=60, and t=120 mins by peak area ratio to determine the percentage remained at t=120 mins (2 h).
(§5) Protocol for PBS, SIF and SGF stability for screening:
(§6) Prodrugs (50 μM) were incubated in PBS, FaSSIF (Biorelevant) or FaSSGF (Biorelevant) at 37° C.

[3] = Plasma stability, human plasma; assay type: in vitro ADME; details: Table 2B, 37 °C, read-out: Plasma Stability Human t1/2
Procedure: as §1
(§7) Protocol for plasma stability for early screen macrocycles (Method A):
(§8) Frozen plasma was thawed by placing at 37° C. quickly and centrifuged at 3,000 rpm for 8 minutes to remove clots. Then the supernatant was pipetted and pooled as the plasma to be used in the experiment. The plasma was placed on ice until used. The test compounds and reference compounds spiking solution was prepared as a 2.5 mM test compounds spiking solution A: Add 20 μL of 10 mM test compounds stock solution to 60 μL DMSO. 0.1 mM Spiking solution B was prepared: Add 40 μL of spiking solution A to 960 μL of […] Sodium phosphate buffer with 0.5% BSA. […] For 0-min, 400 μL of ACN containing IS was added to the wells of 0-min plate and then 90 μL of plasma was added. […] 50 μL of the supernatant was transferred from each well into a 96-well sample plate containing 120 μL of ultra pure water (Millipore, ZMQS50F01) and analyzed by LC/MS.
(§9) Protocol for plasma stability (Method B):
(§10) The frozen plasma was thawed in a 37° C. water bath and then, if needed, adjusted to pH=7.4 then preheated in a 37° C. incubator. The test article was dissolved in 10% DMSO/water and spiked into plasma pre-plated into 96 well plates at a final concentration of 1 μM. Discrete incubations were performed at 37° C. and included 5 time points: t=0, 2, 5, 15, and 30 min. Samples were then crashed with 4× volume, ice cold 20% water/80% acetonitrile and spun at 4000 g for 10 mins. The supernatant was dried down and reconstituted with water and analyzed by LC-MS/MS. The half life in minute was calculated.

[4] = Chemical stability in phosphate buffered saline (PBS); assay type: physicochemical; details: Table 2B, 50 μM prodrug
Procedure: as §4, §5, §6

[5] = Liver microsome stability, human; assay type: in vitro ADME; details: liver microsomes, pH 7.4, Table 2B, read-out: Microsome Stability Human t1/2
Procedure: as §1, §2, §3

[6] = Plasma stability, mouse plasma; assay type: in vitro ADME; details: Table 2B, 37 °C, read-out: Plasma Stability Mouse t1/2
Procedure: as §1, §7, §8, §9, §10

[7] = tested on: Phenocell CrT deficient neurons (iPSC-derived human neurons); test: Creatine prodrug uptake and d3-creatine release in Phenocell CrT deficient neurons (Table 4B); assay type: cell-based; details: 2 hours
Procedure: Human neurons were obtained by differentiation of iPSC-derived neural stem cells for 14 days. The iPSCs were obtained from Phenocell Corporation. Neurons were cultured and differentiated to Day 10 and then frozen in liquid nitrogen. Neurons were thawed and replated at 1×10^6 per well of viable cells on poly-ornithine/laminin coated plates in 2 ml medium per well. Differentiation in complete Neurol medium with 2 ng/ml FGF2 was carried out for 4 additional days with a complete medium change (90% of medium) on Day 12. Activin A (20 ng/ml final conc.) was spiked into the cultures on Day 11 and Day 13. […] In parallel, compounds were incubated in medium alone to assess chemical stability of parent prodrug and metabolites. At the end of the 2 hour incubation, supernatants were collected and frozen at −80 C. Neurons in 6 well plates were washed gently 3× with HBSS and frozen at −80° C. Cell lysates were obtained by addition of 130 μl/well 10 mM Tris pH 7.4 with complete Mini protease inhibitors and scraping of wells. Plates were kept on ice during processing. Lysates were homogenized by hand briefly with a green pestle in 1.5 ml centrifuge tubes and then vortexed at high speed for 5 seconds. Lysates were centrifuged at 13,000 g, 10 minutes, 4 C and supernatants (cytosol fraction) were transferred in a new tube. A crash solution constituted of 80% acetonitrile and 20% water with bucetin, d5-Cr (internal standard) was added at 4:1 volume to volume to 50 ul of all samples for a total volume of 250 μL. Then plate was spun at 4000 rpm, 10 minutes, […] Samples were transferred to a new plate and frozen at −80 C prior to analysis by LC-MS/MS (Table 4B).

Structure (SMILES)	half-life at 10 μM [1]	Chemical Stability SGF, no enzyme % T0 at 2 hours at 37 °C. [2]	half-life [3]	Chemical Stability PBS % T0 at 2 hours at 37 °C. [4]	half-life at 10 μM [5]	half-life [6]	Prodrug concentration in the cell cytosol ([7]; Study No. 3, 50 μM)	d3-Creatine concentration in the cell cytosol ([7]; Study No. 3, 50 μM)	Prodrug concentration in the cell cytosol ([7]; Study No. 2, 100 μM)	Prodrug concentration in the cell cytosol ([7]; Study No. 2, 500 μM)
[2H]C([2H])([2H])N(CC(=O)OC(C)(C)C(C)C)C(=N)NC(=O)CCCCCC [Compound 60]	< 5 min	99%	> 180 min	101%	< 5 min	> 180 min	–	–	–	–
[2H]C([2H])([2H])N(CC(=O)OC(C)(C)C(C)(C)O)C(=N)NC(=O)CCCCCCCCCC [Compound 61]	< 5 min	99%	< 5 min	106%	< 5 min	< 5 min	–	–	–	–
[2H]C([2H])([2H])N(CC(=O)OC(C)(C)C(C)C)C(=N)NC(=O)CCCCCCCCCC [Compound 62]	< 5 min	103%	> 180 min	62%	< 5 min	76 min	–	–	–	–
[2H]C([2H])([2H])N(CC(=O)OC(C)(C)C(C)(C)O)C(=N)NC(=O)CCCCCC [Compound 63]	< 5 min	101%	< 5 min	58%	< 5 min	< 5 min	–	–	–	–
[2H]C([2H])([2H])N1CC(=O)OCCCCCCC(=O)NC1=N [Compound EE, 5-imino-4-trideuteriomethyl-1-oxa-4,6-diazacyclotridecane-2,7-dione]	–	–	–	–	–	–	BLOQ	BLOQ	–	–
[2H]C([2H])([2H])N1CC(=O)OC(C)(C)CCCCCCCCC(=O)NC1=N [Compound HH, 5-imino-4-trideuteriomethyl-16,16-Dimethyl-1-oxa-4,6-diazacyclohexadecane-2,7-dione]	–	–	–	–	–	–	0.088 nmoles/mg protein	BLOQ	–	–
[2H]C([2H])([2H])N1CC(=O)OC(C)CCCCCCCCCCC(=O)NC1=N (stereo not shown) [Compound M]	–	–	–	–	–	–	–	–	BLOQ	BLOQ
[2H]C([2H])([2H])N1CC(=O)OC(C)CCCCCCCC(=O)NC1=N (stereo not shown) [Compound S, 5-imino-4-trideuteriomethyl-15-methyl-1-oxa-4,6-diazacyclopentadecane-2,7-dione]	–	–	–	–	–	–	BLOQ	BLOQ	–	–
[2H]C([2H])([2H])N1CC(=O)OC(CC)CCCCCCCC(=O)NC1=N (stereo not shown) [Compound V, 15-ethyl-5-imino-4-(methyl-d3)-1-oxa-4,6-diazacyclopentadecane-2,7-dione]	–	–	–	–	–	–	BLOQ	BLOQ	–	–
